The record followed here is patent publication US12421225B2, “Heteroaromatic amide derivative and medicament containing the same” (KAKEN PHARMACEUTICAL CO., LTD., priority 2018, dated 2025).

Data set [1] concerns the target human Nav1.7 (Homo sapiens (Human), UniProt Q15858). The data set is described as follows: Human Nav1.7 inhibitory activity evaluation (automated patch clamp QPatch16X, HEK293A cells stably expressing human Nav1.7 and human Navβ1). It counts as cell-based. The procedure, abridged: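 IC50 calculated from the concentration-response of inward current evoked by the second −10 mV, 50 ms depolarisation, which follows a 15 s conditioning step at roughly 30-40% inactivation and a 100 ms −120 mV interval. Cells: HEK293A expressing human Nav1.7/Navβ1, automated patch clamp, room temperature, 0.1% DMSO final.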

Data set [2] addresses human Nav1.5 (Homo sapiens (Human), UniProt Q14524). The data set is described as follows: Human Nav1.5 inhibitory activity evaluation (automated patch clamp QPatch16X, HEK293 cells stably expressing human Nav1.5). It counts as cell-based. The procedure, abridged: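 IC50 derived from concentration-response of inward current at the 20th of 20 action-potential-mimicking pulses (holding −80 mV, leak corrected with −100 mV step). HEK293 cells stably expressing human Nav1.5, room temperature, extracellular pH 7.4, intracellular CsF-based pH 7.3, 0.1% DMSO.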

Where [3] appears, read: human Nav1.7, automated patch clamp.
Setting [4] is: human Nav1.5, automated patch clamp.
Setting [5] is: HEK293A cells stably expressing human Nav1.7 and human Navβ1, automated patch clamp QPatch16X.
[6] abbreviates: HEK293 cells stably expressing human Nav1.5, automated patch clamp QPatch16X.

A value given as a limit tells only on which side of the number the result lay.

Sequence of human Nav1.7 (Q15858 whole entry): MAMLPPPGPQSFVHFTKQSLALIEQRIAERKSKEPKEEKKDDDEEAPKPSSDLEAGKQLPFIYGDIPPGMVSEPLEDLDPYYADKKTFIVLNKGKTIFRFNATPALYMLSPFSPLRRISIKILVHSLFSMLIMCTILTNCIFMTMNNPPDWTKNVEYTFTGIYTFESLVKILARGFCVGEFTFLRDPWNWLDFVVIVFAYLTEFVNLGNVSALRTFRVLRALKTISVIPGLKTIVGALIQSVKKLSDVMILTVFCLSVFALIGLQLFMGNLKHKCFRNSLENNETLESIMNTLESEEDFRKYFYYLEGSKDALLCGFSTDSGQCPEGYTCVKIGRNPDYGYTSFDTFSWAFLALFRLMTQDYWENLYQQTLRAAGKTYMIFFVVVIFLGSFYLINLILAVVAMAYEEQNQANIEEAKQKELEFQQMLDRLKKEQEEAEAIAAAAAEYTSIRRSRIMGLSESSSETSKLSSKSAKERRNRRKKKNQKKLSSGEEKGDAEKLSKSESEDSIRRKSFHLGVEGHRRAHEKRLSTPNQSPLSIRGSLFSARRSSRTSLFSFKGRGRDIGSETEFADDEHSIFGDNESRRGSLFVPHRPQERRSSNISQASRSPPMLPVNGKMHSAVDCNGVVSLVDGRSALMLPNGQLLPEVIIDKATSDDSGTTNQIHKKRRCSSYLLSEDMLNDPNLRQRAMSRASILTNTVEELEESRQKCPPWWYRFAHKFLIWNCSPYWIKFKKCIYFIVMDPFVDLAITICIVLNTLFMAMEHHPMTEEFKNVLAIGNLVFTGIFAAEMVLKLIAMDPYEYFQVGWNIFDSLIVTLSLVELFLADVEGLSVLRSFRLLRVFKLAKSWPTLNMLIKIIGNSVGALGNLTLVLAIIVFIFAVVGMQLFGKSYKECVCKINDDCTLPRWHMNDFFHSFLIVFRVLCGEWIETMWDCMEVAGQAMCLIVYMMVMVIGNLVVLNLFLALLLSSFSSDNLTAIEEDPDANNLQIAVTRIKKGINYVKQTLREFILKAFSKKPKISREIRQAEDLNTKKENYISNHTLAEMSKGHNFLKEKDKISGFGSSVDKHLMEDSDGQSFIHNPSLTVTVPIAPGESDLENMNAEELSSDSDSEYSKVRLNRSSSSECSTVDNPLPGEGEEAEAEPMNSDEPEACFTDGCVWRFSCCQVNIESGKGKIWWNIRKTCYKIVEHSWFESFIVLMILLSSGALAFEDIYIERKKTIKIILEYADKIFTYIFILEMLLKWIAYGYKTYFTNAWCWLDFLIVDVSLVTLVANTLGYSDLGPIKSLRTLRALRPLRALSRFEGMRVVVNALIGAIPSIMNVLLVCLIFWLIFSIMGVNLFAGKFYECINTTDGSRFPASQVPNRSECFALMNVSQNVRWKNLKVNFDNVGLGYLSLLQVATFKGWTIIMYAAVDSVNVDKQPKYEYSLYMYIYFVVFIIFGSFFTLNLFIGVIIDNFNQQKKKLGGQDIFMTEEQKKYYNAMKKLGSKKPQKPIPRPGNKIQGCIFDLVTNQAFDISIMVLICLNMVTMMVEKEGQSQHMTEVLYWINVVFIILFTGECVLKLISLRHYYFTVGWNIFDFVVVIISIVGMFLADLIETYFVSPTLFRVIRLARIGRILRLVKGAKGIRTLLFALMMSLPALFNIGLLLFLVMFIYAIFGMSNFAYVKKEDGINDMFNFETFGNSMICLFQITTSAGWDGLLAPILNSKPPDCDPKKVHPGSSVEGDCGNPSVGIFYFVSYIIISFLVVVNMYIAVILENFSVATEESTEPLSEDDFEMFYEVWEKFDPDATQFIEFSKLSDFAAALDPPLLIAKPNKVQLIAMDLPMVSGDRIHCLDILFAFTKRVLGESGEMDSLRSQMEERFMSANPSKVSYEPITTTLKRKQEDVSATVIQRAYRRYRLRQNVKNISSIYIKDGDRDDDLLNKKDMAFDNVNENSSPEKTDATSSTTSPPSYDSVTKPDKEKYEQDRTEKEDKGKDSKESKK
Sequence of human Nav1.7 (Q07699 19-218 partner): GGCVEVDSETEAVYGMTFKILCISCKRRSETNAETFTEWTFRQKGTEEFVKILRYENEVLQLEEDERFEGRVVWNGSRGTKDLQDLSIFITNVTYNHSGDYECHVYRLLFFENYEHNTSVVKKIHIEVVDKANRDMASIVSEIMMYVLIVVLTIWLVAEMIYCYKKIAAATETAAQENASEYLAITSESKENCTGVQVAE
Sequence of human Nav1.5 (Q14524 whole entry): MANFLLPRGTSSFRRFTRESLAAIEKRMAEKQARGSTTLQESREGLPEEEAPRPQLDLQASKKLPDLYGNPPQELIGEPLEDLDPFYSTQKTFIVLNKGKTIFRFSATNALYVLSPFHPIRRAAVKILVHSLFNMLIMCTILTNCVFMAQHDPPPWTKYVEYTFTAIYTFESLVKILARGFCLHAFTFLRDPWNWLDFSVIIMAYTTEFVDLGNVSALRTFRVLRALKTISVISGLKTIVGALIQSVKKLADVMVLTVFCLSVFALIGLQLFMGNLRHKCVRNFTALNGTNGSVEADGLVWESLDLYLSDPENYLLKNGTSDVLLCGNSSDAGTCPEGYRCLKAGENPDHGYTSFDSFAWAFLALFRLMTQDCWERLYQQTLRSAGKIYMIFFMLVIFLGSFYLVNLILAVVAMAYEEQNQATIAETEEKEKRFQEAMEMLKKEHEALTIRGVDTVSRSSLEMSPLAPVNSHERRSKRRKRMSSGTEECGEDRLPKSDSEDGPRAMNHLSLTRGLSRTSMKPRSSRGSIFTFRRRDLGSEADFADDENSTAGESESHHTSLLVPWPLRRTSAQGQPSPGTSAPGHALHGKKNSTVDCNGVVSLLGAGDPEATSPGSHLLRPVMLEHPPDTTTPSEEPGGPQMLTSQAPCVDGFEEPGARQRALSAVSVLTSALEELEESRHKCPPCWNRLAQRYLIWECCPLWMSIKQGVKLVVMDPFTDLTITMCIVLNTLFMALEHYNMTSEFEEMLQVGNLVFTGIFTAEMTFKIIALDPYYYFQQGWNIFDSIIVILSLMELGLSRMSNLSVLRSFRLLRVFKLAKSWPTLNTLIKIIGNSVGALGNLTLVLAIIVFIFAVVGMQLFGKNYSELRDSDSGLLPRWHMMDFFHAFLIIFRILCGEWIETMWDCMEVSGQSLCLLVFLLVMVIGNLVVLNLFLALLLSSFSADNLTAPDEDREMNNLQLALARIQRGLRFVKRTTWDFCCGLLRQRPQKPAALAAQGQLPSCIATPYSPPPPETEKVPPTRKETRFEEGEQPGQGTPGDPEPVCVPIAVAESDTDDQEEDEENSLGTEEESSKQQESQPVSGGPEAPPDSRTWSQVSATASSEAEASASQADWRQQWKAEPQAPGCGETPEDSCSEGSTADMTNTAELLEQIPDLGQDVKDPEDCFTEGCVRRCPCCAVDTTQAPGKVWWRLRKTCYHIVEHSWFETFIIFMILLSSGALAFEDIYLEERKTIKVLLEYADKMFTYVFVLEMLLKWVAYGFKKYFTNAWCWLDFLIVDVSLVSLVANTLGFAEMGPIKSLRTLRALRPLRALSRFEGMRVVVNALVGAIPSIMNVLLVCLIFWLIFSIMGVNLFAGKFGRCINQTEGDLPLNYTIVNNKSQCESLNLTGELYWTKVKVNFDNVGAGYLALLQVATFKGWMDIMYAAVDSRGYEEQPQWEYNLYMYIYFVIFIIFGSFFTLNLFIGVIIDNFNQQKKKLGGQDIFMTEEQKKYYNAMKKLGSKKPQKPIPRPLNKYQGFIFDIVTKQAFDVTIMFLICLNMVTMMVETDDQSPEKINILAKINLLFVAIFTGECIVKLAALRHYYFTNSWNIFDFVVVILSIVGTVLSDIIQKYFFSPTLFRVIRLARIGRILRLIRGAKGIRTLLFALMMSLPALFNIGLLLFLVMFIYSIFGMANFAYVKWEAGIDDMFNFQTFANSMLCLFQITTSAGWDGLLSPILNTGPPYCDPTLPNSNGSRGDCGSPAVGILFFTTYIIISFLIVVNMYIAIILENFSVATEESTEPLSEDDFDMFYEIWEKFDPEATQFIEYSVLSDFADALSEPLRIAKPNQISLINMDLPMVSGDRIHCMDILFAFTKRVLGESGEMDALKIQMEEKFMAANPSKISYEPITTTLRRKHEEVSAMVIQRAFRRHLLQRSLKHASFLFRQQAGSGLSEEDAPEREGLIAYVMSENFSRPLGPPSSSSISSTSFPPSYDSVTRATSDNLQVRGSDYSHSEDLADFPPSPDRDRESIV

One may read the IC50 as the point on the concentration scale where inhibition reaches its midpoint. Read a low IC50 as inhibition by little substance. On to `O=C(N[C@H]1COc2ccc(Cl)cc2C1)c1cc2n(n1)CC(CCNCC(F)(F)F)O2` (single isomer, unassigned) [226 (isomer B)], for which the IC50 in data set [1] (setting [3]) is less than 1000 nM; in data set [2] (setting [4]) it was 1000 to 3000 nM.
Regarding `Cc1ccc2c(c1)C[C@@H](NC(=O)c1cc3n(n1)CC(CCNCC(F)(F)F)O3)CO2` (single isomer, unassigned) [228 (isomer A)], the IC50 in data set [1] (setting [3]) was less than 1000 nM; in data set [2] (setting [4]) it was not below 3000 nM.
Consider `O=C(N[C@H]1COc2ccc(C(F)(F)F)cc2C1)c1cc2n(n1)CC(CCNCC(F)(F)F)O2` (single isomer, unassigned) [230 (isomer A)], for which the IC50 in data set [1] (setting [3]) was less than 1000 nM; in data set [2] (setting [4]) it was not below 3000 nM.
`O=C(N[C@H]1COc2ccc(COCC(F)(F)F)cc2C1)c1cc2n(n1)CC(CCNCC(F)(F)F)O2` (single isomer, unassigned) [232 (isomer A)]: the IC50 was less than 1000 nM in data set [1] (setting [3]) and 1000 to 3000 nM in data set [2] (setting [4]).
For the compound `O=C(N[C@H]1COc2ccc(COCC(F)(F)F)cc2C1)c1cc2n(n1)CC(CCNCC(F)(F)F)O2` (single isomer, unassigned) [232 (isomer B)], the results for the IC50 in data set [1] (setting [3]) and in data set [2] (setting [4]) were less than 1000 nM and not below 3000 nM, respectively.
In the case of `O=C(N[C@H]1COc2ccc(Cl)cc2C1)c1cc2n(n1)CC(CCN1CC(F)(F)C1)O2` (single isomer, unassigned) [234 (isomer A)], the IC50 in data set [1] (setting [3]) is less than 1000 nM; in data set [2] (setting [4]) it was not below 3000 nM.
For `O=C(N[C@H]1COc2ccc(Cl)cc2C1)c1cc2n(n1)CC(CCN1CC(F)(F)C1)O2` (single isomer, unassigned) [234 (isomer B)], the IC50 in data set [1] (setting [3]) and in data set [2] (setting [4]) was less than 1000 nM each time.
As for `O=C(N[C@H]1COc2ccc(C(F)(F)F)cc2C1)c1cc2n(n1)CC(CCN1CC(F)(F)C1)O2` (single isomer, unassigned) [236 (isomer B)], the IC50 in data set [1] (setting [3]) was less than 1000 nM; in data set [2] (setting [4]), 1000 to 3000 nM.
The like results for `N#Cc1ccc2c(c1)C[C@@H](NC(=O)c1cc3n(n1)CC(CCSCC(F)(F)F)O3)CO2` (single isomer, unassigned) [244 (isomer B)] were, in that order, less than 1000 nM and less than 1000 nM.
Consider `N#Cc1ccc2c(c1)C[C@@H](NC(=O)c1cc3n(n1)CC(CCCOCC(F)(F)F)O3)CO2` (single isomer, unassigned) [246 (isomer A)], for which the IC50 in data set [1] (setting [3]) is less than 1000 nM; in data set [2] (setting [4]), 1000 to 3000 nM.
In the case of `N#Cc1ccc2c(c1)C[C@@H](NC(=O)c1cc3n(n1)CC(CCCOCC(F)(F)F)O3)CO2` (single isomer, unassigned) [246 (isomer B)], the IC50 in data set [1] (setting [3]) was less than 1000 nM; in data set [2] (setting [4]) it was not below 3000 nM.
`N#Cc1ccc2c(c1)C[C@@H](NC(=O)c1cc3n(n1)CC(CCCOC(F)(F)F)O3)CO2` (single isomer, unassigned) [247 (isomer A)]: the IC50 in data set [1] (setting [3]) was less than 1000 nM; in data set [2] (setting [4]), 1000 to 3000 nM.
Consider `N#Cc1ccc2c(c1)C[C@@H](NC(=O)c1cc3n(n1)CC(CCCOC(F)F)O3)CO2` (single isomer, unassigned) [248 (isomer A)], for which the IC50 was less than 1000 nM in data set [1] (setting [3]) and 1000 to 3000 nM in data set [2] (setting [4]).
With `O=C(N[C@H]1COc2ccc(Cl)cc2C1)c1cc2n(n1)CCC(OCC(F)(F)F)CO2` (single isomer, unassigned) [256 (isomer A)], the IC50 in data set [1] (setting [3]) was less than 1000 nM; in data set [2] (setting [4]) it was not below 3000 nM.
As to `O=C(N[C@H]1COc2ccc(Cl)cc2C1)c1cc2n(n1)CCC(OCC(F)(F)F)CO2` (single isomer, unassigned) [256 (isomer B)], the IC50 in data set [1] (setting [3]) is less than 1000 nM; in data set [2] (setting [4]), 1000 to 3000 nM.
For `O=C(N[C@H]1COc2ccc(C(F)(F)F)cc2C1)c1cc2n(n1)CCC(OCC(F)(F)F)CO2` (single isomer, unassigned) [257 (isomer A)], the IC50 is less than 1000 nM in data set [1] (setting [3]) and not below 3000 nM in data set [2] (setting [4]).
Take `CC(C)(F)C1CCn2nc(C(=O)N[C@H]3COc4ccc(C#N)cc4C3)cc2O1` (single isomer, unassigned) [547 (isomer A)]: the IC50 in data set [1] (setting [3]) was less than 10000 nM; in data set [2] (setting [4]), not below 3000 nM.
Regarding `N#Cc1ccc2c(c1)C[C@@H](NC(=O)c1cc3n(n1)CCC(COCC1(F)CC1)O3)CO2` (single isomer, unassigned) [552 (isomer A)], the figures for the IC50 in data set [1] (setting [3]) and in data set [2] (setting [4]) were less than 10000 nM and not below 3000 nM, respectively.
As to `N#CC1(COCC2CCn3nc(C(=O)N[C@H]4COc5ccc(C(F)(F)F)cc5C4)cc3O2)CC1` (single isomer, unassigned) [554 (isomer A)], the IC50 is less than 1000 nM in data set [1] (setting [3]) and not below 3000 nM in data set [2] (setting [4]).
As to `N#CC1(COCC2CCn3nc(C(=O)N[C@H]4COc5ccc(Cl)cc5C4)cc3O2)CC1` (single isomer, unassigned) [563 (isomer A)], the IC50 in data set [1] (setting [3]) is less than 10000 nM; in data set [2] (setting [4]), 1000 to 3000 nM.
Regarding `N#CC1(COCC2CCn3nc(C(=O)N[C@H]4COc5ccc(Cl)cc5C4)cc3O2)CC1` (single isomer, unassigned) [563 (isomer B)], the IC50 in data set [1] (setting [3]) was less than 1000 nM; in data set [2] (setting [4]), not below 3000 nM.
On the same counts, the results for `COC1c2cc(C(F)(F)F)ccc2OC[C@@H]1NC(=O)c1cc2n(n1)CCC(COCC(F)(F)F)O2` (single isomer, unassigned) [598 (isomer B)] are less than 1000 nM and 1000 to 3000 nM.
For the compound `O=C(N[C@H]1COc2ccc(C(F)(F)F)cc2C1O)c1cc2n(n1)CC(CCOCC(F)(F)F)O2` (single isomer, unassigned) [600 (isomer B)], the results for the IC50 in data set [1] (setting [3]) and in data set [2] (setting [4]) were less than 1000 nM and 1000 to 3000 nM, respectively.
With `O=C(N[C@H]1COc2ccc(CC(F)F)cc2C1)c1cc2n(n1)CCC(COCC(F)(F)F)CO2` (single isomer, unassigned) [601 (isomer B)], the IC50 was less than 10000 nM in data set [1] (setting [3]) and not below 3000 nM in data set [2] (setting [4]).
For `O=C(N[C@H]1COc2ccc(COCC(F)(F)F)cc2C1)c1cc2n(n1)CCC(COCC(F)(F)F)CO2` (single isomer, unassigned) [602 (isomer A)], the IC50 is less than 1000 nM in data set [1] (setting [3]) and not below 3000 nM in data set [2] (setting [4]).
As to `O=C(N[C@H]1COc2ccc(C(F)(F)F)cc2C1O)c1cc2n(n1)CC(CCCOCC(F)(F)F)O2` (single isomer, unassigned) [603 (isomer B)], the IC50 in data set [1] (setting [3]) was less than 1000 nM; in data set [2] (setting [4]) it was not below 3000 nM.
Take `N#Cc1ccc2c(c1)C[C@@H](NC(=O)c1cc3n(n1)CC(CCCOCC(F)F)O3)CO2` (single isomer, unassigned) [604 (isomer A)]: the IC50 in data set [1] (setting [3]) is less than 1000 nM; in data set [2] (setting [4]) it was 1000 to 3000 nM.
On the same counts, the results for `O=C(N[C@H]1COc2ccc(C(F)(F)F)cc2C1O)c1cc2n(n1)CC(CCCOCC(F)F)O2` (single isomer, unassigned) [608 (isomer A)] are less than 1000 nM and not below 3000 nM.
Consider `O=C(N[C@H]1COc2ccc(C(F)(F)F)cc2C1O)c1cc2n(n1)CC(CCCOCC(F)F)O2` (single isomer, unassigned) [608 (isomer B)], for which the IC50 in data set [1] (setting [3]) is less than 1000 nM; in data set [2] (setting [4]), not below 3000 nM.
Regarding `O=C(N[C@H]1COc2ccc(C(F)(F)F)cc2C1O)c1cc2n(n1)CC(CCCOCC(F)F)O2` (single isomer, unassigned) [610 (isomer A)], the values for the IC50 in data set [1] (setting [3]) and in data set [2] (setting [4]) were less than 1000 nM and not below 3000 nM, respectively.
Regarding `O=C(N[C@H]1COc2ccc(COCC(F)(F)F)cc2C1)c1cc2n(n1)CCC(C1CCOCC1)O2` (single isomer, unassigned) [615 (isomer A)], the figures for the half-maximal inhibitory concentration (IC50) in data set [1] (setting [3]) and in data set [2] (setting [4]) were less than 1000 nM and 1000 to 3000 nM, respectively.
For `O=C(N[C@H]1COc2ccc(COCC(F)(F)F)cc2C1)c1cc2n(n1)CCC(C1CCOCC1)O2` (single isomer, unassigned) [615 (isomer B)], the IC50 is less than 1000 nM in data set [1] (setting [3]) and not below 3000 nM in data set [2] (setting [4]).
The like results for `O=C(N[C@H]1COc2ccc(C(F)(F)F)cc2C1O)c1cc2n(n1)CC(CCCOCC(F)(F)F)O2` (single isomer, unassigned) [616 (isomer A)] were, in that order, less than 1000 nM and 1000 to 3000 nM.
With `N#Cc1ccc2c(c1)C(F)[C@@H](NC(=O)c1cc3n(n1)CCC(COCC1CC1)O3)CO2` (single isomer, unassigned) [617 (isomer A)], the values for the IC50 in data set [1] (setting [3]) and in data set [2] (setting [4]) were less than 1000 nM and not below 3000 nM, respectively.
On to `N#Cc1ccc2c(c1)C(F)[C@@H](NC(=O)c1cc3n(n1)CCC(COCC1CC1)O3)CO2` (single isomer, unassigned) [617 (isomer C)], for which the IC50 was less than 10000 nM in data set [1] (setting [3]) and not below 3000 nM in data set [2] (setting [4]).
As for `O=C(N[C@H]1COc2ccc(COCC(F)(F)F)cc2C1)c1cc2n(n1)CC(CC1CCOCC1)O2` (single isomer, unassigned) [622 (isomer A)], the half-inhibitory concentration (IC50) was less than 1000 nM in data set [1] (setting [3]) and not below 3000 nM in data set [2] (setting [4]).
As for `O=C(N[C@H]1COc2ccc(Cl)cc2C1)c1cn2c(n1)CCC(C(F)(F)F)C2` (single isomer, unassigned) [Example 2 (isomer A)], the IC50 in data set [1] (setting [5]) is less than 1000 nM; in data set [2] (setting [6]), 1000 to 3000 nM.
As for `O=C(N[C@H]1COc2ccc(Cl)cc2C1)c1cn2c(n1)CCC(C(F)(F)F)C2` (single isomer, unassigned) [Example 2 (isomer B)], the results for the IC50 in data set [1] (setting [5]) and in data set [2] (setting [6]) were less than 1000 nM and not below 3000 nM, respectively.
The like results for `CN(C(=O)c1cn2c(n1)CCC(C(F)(F)F)C2)[C@H]1COc2ccc(Cl)cc2C1` (single isomer, unassigned) [Example 4] were, in that order, less than 10000 nM and not below 3000 nM.
With `O=C(N[C@H]1COc2ccc(C(F)(F)F)cc2C1O)c1cc2n(n1)CCC(COCC(F)(F)F)CO2` (single isomer, unassigned) [Example 683], the IC50 in data set [1] (setting [3]) is less than 10000 nM; in data set [2] (setting [4]), not below 3000 nM.
As for `N#Cc1ccc2c(c1)C[C@@H](NC(=O)c1cc3n(n1)CC[C@H](COCC(F)(F)F)CO3)CO2` (single isomer, unassigned; isomer a) [572(isomer A)], the IC50 in data set [1] (setting [3]) is less than 10000 nM; in data set [2] (setting [4]), not below 3000 nM.
